Measured values published in US20230271969A1, “NITROGEN-CONTAINING FUSED RING DERIVATIVE INHIBITOR, PREPARATION METHOD THEREFOR AND USE THEREOF” (Shanghai Hansoh Biomedical Co., Ltd., priority 2020, published 2023).
Like-named read-outs stand apart in the source and are kept apart here.

Tests used:
[1] = system: Senktide-induced bilateral ovariectomy rats; assay: Tail skin temperature in a Senktide-induced bilateral ovariectomy rat model; format: in vivo; settings: OVX SD rats, oral 30 mg/kg, 30 min before s.c. Senktide, tail skin temperature over 75 min
From the text: Pharmacodynamic Study of the Test Compounds on Tail Skin Temperature in a Senktide-Induced Bilateral Ovariectomy Rat Model
To evaluate the effect of the test compounds on tail skin temperature in Senktide-induced bilateral ovariectomy rats.
2.3. Experimental Animals • Ten-Week-old female bilateral ovariectomy SD rats were purchased from Beijing Vital River Laboratory Animal Technology Co., Ltd. The animals were housed in a SPF grade animal facility with 5 SD rats per cage. The cages, bedding, feed and water were disinfected at high temperatures before use. All animals had free access to food and water.
Ten-week-old female SD rats were subjected to bilateral ovariectomy and recovered for two weeks, and then randomly divided into negative control group, model group and drug administration group (8 rats per group), based on body weight. The probe was attached to the dorsal surface of the rat tail with medical tape, 1-2 cm away from the tailhead of the rat.
The vehicle was administered orally to the negative control group and the model group, and different test compounds were administered orally to each drug administration group at a dose of 30 mg/kg and a volume of 10 mL/kg.
Thirty minutes after the oral administration of the vehicle or test compound, the negative control group was injected subcutaneously with normal saline (at a volume of 5 mL/kg); the model group and each drug administration group were injected subcutaneously with 0.2 mg/mL of Senktide (at a volume of 5 mL/kg) to induce the hot flashes-like symptom.
The change in tail skin temperature (ΔTST) at each time point relative to time point 0 was calculated, the ΔTST-time curve of the change in tail skin temperature was plotted, and the area under curve (AUCΔTST) was calculated. ΔTST=TSTn−TST0, TST0 is the tail skin temperature at 0 minute before the subcutaneous injection of normal saline or Senktide; TSTn is the tail skin temperature at the n minute after the subcutaneous injection.
AUCΔTST=Σ(ΔTSTn+ΔTSTn+5)*5/2

[2] = molecular target: T1, NK3 receptors (Homo sapiens, UniProt P29371); assay: Calcium ion fluidity (FLIPR) in cells with stable expression of NK3 receptors; format: cell-based; settings: calcium signal, antagonist mode, read-out: NK3R IC50 (nM) FLIPR
T1 construct: expressed in transfected cells
T1 sequence (P29371 1-465): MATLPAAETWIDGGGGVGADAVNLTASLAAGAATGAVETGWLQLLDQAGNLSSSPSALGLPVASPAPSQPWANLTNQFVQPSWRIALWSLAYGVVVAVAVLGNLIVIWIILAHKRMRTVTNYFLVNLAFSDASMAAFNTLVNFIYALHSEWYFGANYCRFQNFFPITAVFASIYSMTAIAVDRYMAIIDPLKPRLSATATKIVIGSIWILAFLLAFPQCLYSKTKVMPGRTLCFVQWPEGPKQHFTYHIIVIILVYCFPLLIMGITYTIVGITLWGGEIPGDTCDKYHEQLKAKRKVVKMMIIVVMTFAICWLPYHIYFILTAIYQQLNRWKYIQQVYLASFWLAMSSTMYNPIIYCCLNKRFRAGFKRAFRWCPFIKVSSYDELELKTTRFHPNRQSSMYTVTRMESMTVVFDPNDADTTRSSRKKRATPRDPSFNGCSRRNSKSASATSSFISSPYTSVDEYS
From the text: Determination of the Effect of the Compounds of the Present Invention on Calcium Ion Fluidity in Cells with Stable Expression of NK3 Receptors
Experimental objective: The objective of this test example was to determine the inhibitory effect of the compounds on NK3 receptors.
Experimental Methods: • 1. […] Probenecid and BSA were freshly added on the day of the experiment. The buffers for the experiments included dye buffer, compound dilution buffer and the like. • 2. […] The culture medium was discarded, and 20 μL of dye was added. The cells were incubated at 37° C. in the dark for 60 min, and then the calcium signal was read. • 4. The antagonist was prepared before the experiments. […] The plate was transferred to FLIPR, and 6× concentration of the agonist compound was added at 5 μL/well. The values were read and the data were saved by using FLIPR. The total assay volume was 30 μL, comprising 20 μL/well of dye buffer, 5 μL/well of 5× concentration of the experimental compound, and 5 μL/well of 6× concentration of the agonist compound.
The calcium signal value was read by FLIPR. The output of each sampling time point in the experiment was calculated as the ratio of the signals at wavelengths of 340/510 nm to 380/510 nm. The maximum minus minimum value was calculated from the ratio signal curve. The IC50 value of the compound was calculated by fitting the data of inhibition rate percentage and ten concentrations to the parametric nonlinear logistic equation by using GraphPad prism.

[3] = molecular target: T1, NK3 receptors; assay: Antagonism of IP1 in HEK293 cells with stable expression of NK3; format: cell-based; settings: agonist Senktide 3 nM, read-out: NK3R IC50 (nM) IP1
Description: Determination of the Effect of the Compounds of the Present Invention on IP1 in HEK293 Cells with Stable Expression of NK3
The objective of this test example was to determine the antagonism effect of the compounds on the activity of HEK293-NK3 cells.
3. Experimental Methods: • 1. […] HEK293-NK3 cell line was cultured in complete medium and seeded in the coated dishes at 37° C., 5% CO2 until 70%˜90% confluence. • 3. […] The cells were digested and resuspended in 1× Stimulation Buffer (IP-ONE Gq Kit), seeded into the 384-well cell culture plate (which contained the compound to be tested) at 5,000 cells/well/5 μL by using Multidrop Combi. The culture plate was centrifuged at 300 rpm at room temperature for 60 seconds, and then incubated at 37° C., 5% CO2 for 15 minutes. • 5. The cell culture plate was taken out from the CO2 incubator. […] The culture plate was centrifuged at 300 rpm at room temperature for 60 seconds, and then incubated at 37° C., 5% CO2 for 2 hours. • 6. The cell culture plate was taken out from the CO2 incubator. 5 μL of IP1 d2 reagent and then 5 μL of IP1 Tb Cryptate Antibody reagent were added by using Multidrop Combi. The culture plate was centrifuged at room temperature at 300 rpm for 60 seconds, and left to stand at room temperature for 1 hour. • 7. The plate was read by using EnVision Multilabel Reader, and data were collected at the same time.
The fluorescence signal ratio (Ratio) was read and collected by EnVision Multilabel Reader. According to the readings of the Low control (DMSO control) and High control (p)ositive compound) experimental groups, the antagonism percentage data were calculated as {% antagonism=(Ratio sample−Ratio low control)/(Ratio high control−Ratio low control)×100}.

[4] = Pharmacokinetic assay in SD rats (plasma and brain tissue); format: in vivo; settings: rat, po, male SD rats, p.o. 5 mg/kg; for AUC(0-t): read-out: Area under curve AUC0-t; for Tmax: read-out: Peak time tmax; for Cmax: read-out: Plasma concentration Cmax
Description: Test Example 4. Pharmacokinetic Assays in SD Rats
SD rats were used as test animals. The in vivo (plasma and brain tissue) pharmacokinetic behavior of the compounds of the present invention was investigated by oral administration of the compound in rats at a dose of 5 mg/kg.
Male SD rats (21 animals per group), purchased from Shanghai JieSiJie Laboratory Animal Co., Ltd., under the Animal Production License Number of SCXK (Shanghai) 2013-0006 No. 311620400001794.
The experimental drug was dissolved in 0.5% CMC-Na (1% Tween 80) by sonication to formulate a clear solution or a homogeneous suspension.
After an overnight fast, male SD rats (21 animals per group) were administered p.o. with the experimental drug at an administration dose of 5 mg/kg and the administration volume of 10 mL/kg.
Rats were sacrificed with CO2 at 0, 0.5, 1, 2, 4, 8 and 24 hours before and after the drug administration. 8 mL of blood was collected by cardiac puncture, placed in EDTA-K2 tubes, and centrifuged at 4° C. at 6,000 rpm for 6 min. Plasma was separated and stored at −80° C. The whole brain tissue was dissected and weighed, and then placed in a 2 mL centrifuge tube and stored at −80° C.
2.6 Sample Processing: • 1) 160 μL of acetonitrile was added to 40 μL of plasma sample for precipitation. After mixing, the sample was centrifuged at 3500×g for 5-20 minutes. • 2) 90 μL of acetonitrile containing internal standard (100 ng/mL) was added to 30 μL of plasma or brain homogenate sample for precipitation. After mixing, the sample was centrifuged at 13,000 rpm for 8 minutes. • 3) 70 μL of water was added to 70 μL of treated supernatant, and mixed by vortex for 10 minutes. Then 20 μL of the sample was analyzed by LC/MS/MS to determine the concentration of the compound to be tested. The LC/MS/MS instrument for analysis was AB Sciex API 4000 Qtrap.
2.7 Liquid Chromatography Analysis: • Liquid chromatography conditions: Shimadzu LC-20AD pump • Chromatographic column: Agilent ZORBAX XDB-C18 (50×2.1 mm, 3.5 μm) Mobile phase: Eluent A was 0.1% formic acid in water, and Eluent B was acetonitrile. • Flow rate: 0.4 mL/min • Elution time: 0-4.0 minutes, the eluate was as follows:
The major pharmacokinetic parameters were calculated by using WinNonlin 6.1, and the results of the pharmacokinetic experiments in rats were shown in Table 3 below: […]

SMILES: [2H]c1c([2H])c(C(=O)N2CCn3c(-c4nc5ccccc5s4)nnc3[C@H]2C)c([2H])c([2H])c1F [Example 2, (R)-(3-(Benzo[d]thiazol-2-yl)-8-methyl-5,6-dihydro-[1,2,4]triazolo[4,3-a]pyrazin-7 (8H)-yl)(4-fluorophenyl-2,3,5,6-d4)methanone]
- AUCΔTST [1]: 71.3 ± 25.5 °C · min
- IC50 [2]: 58.2 nM
- IC50 [3]: 171 nM

SMILES: Cc1nsc(-c2nnc3n2CCN(C(=O)c2ccc(F)cc2)[C@@H]3C)n1 [Fezolinetant]
- AUCΔTST [1]: 116.7 ± 50.6 °C · min
- IC50 [2]: 904 nM

SMILES: C[C@@H]1c2nnc(-c3nc(Cl)ns3)n2CCN1C(=O)c1ccc(Cl)cc1 [Example 57, (R)-(3-(3-Chloro-1,2,4-thiadiazol-5-yl)-8-methyl-5,6-dihydro-[1,2,4]triazolo[4,3-a]pyrazin-7(8H)-yl)(4-chlorophenyl)methanone]
- AUC(0-t) ([4]; Brain): 2340 ng·h/mL
- Tmax ([4]; Brain): 1 h
- Cmax ([4]; Brain): 670 ng/mL
- AUC(0-t) ([4]; Plasma): 7130 ng·h/mL
- half-life ([4]; Plasma, read-out: Half life t1/2 (converted)): 3.2 h
- MRT ([4]; Plasma, read-out: Mean residence time MRT): 4.8 h
- Tmax ([4]; Plasma): 2 h
- Cmax ([4]; Plasma): 930 ng/mL
- IC50 [2]: 61 nM
- IC50 [3]: 28.9 nM

SMILES: C[C@@H]1c2nnc(-c3nc4ccccc4s3)n2CCN1C(=O)c1ccc(Cl)cc1 [Example 3, (R)-(3-(Benzo[d]thiazol-2-yl)-8-methyl-5,6-dihydro-[1,2,4]triazolo[4,3-a]pyrazin-7 (8H)-yl)(4-chlorophenyl)methanone]
- AUCΔTST [1]: 81.3 ± 37.4 °C · min
- IC50 [2]: 30.5 nM
- IC50 [3]: 68.7 nM

SMILES: C[C@@H]1c2nnc(-c3nc4cc(F)c(F)cc4s3)n2CCN1C(=O)c1ccc(F)cc1 [Example 17, (R)-(3-(5,6-Difluorobenzo[d]thiazol-2-yl)-8-methyl-5,6-dihydro-[1,2,4]triazolo[4,3-a]pyrazin-7(8H)-yl)(4-fluorophenyl)methanone]
- AUC(0-t) ([4]; Brain): 3230 ng·h/mL
- Tmax ([4]; Brain): 4 h
- Cmax ([4]; Brain): 1120 ng/mL
- AUC(0-t) ([4]; Plasma): 46700 ng·h/mL
- Tmax ([4]; Plasma): 6 h
- Cmax ([4]; Plasma): 2300 ng/mL
- IC50 [2]: 6.81 nM
- IC50 [3]: 15.2 nM

SMILES: [2H]c1c([2H])c(C(=O)N2CCn3c(-c4nc(Cl)ns4)nnc3[C@H]2C)c([2H])c([2H])c1F [Example 55, (R)-(3-(3-Chloro-1,2,4-thiadiazol-5-yl)-8-methyl-5,6-dihydro-[1,2,4]triazolo[4,3-a]pyrazin-7(8H)-yl)(4-fluorophenyl-2,3,5,6-d4)methanone]
- IC50 [2]: 219 nM
- IC50 [3]: 88.3 nM

SMILES: C[C@@H]1c2nnc(-c3nc4ccc(Cl)cc4s3)n2CCN1C(=O)c1ccc(F)cc1 [Example 19, (R)-(3-(6-Chlorobenzo[d]thiazol-2-yl)-8-methyl-5,6-dihydro-[1,2,4]triazolo[4,3-a]pyrazin-7(8H)-yl)(4-fluorophenyl)methanone]
- IC50 [2]: 10.9 nM
- IC50 [3]: 15.6 nM
